Results from doi:10.1101/2025.03.13.643086, “Granzyme-targeting quenched activity-based probes for assessing tumor response to immunotherapy” (bioRxiv, 2025).
Non-standard residues stand in square brackets, D forms with d. Residues, ends and D or L forms follow the SMILES beside them. *: point of attachment. Abu(4-SO3H) = N[C@@H](CCS(=O)(=O)O)C(=O)O; ACC = NC(=O)Cc1cc(=O)oc2cc(N*)ccc12; Cya = N[C@@H](CS(=O)(=O)O)C(=O)O

How the values were obtained:
[1] = target: recombinant human active GzmB (Homo sapiens, UniProt P10144); test: Enzyme cleavage assay / Michaelis-Menten kinetics of fluorogenic substrates with GzmB; format: biochemical; conditions: 10 nM GzmB
recombinant human active GzmB, sequence (P10144 21-247): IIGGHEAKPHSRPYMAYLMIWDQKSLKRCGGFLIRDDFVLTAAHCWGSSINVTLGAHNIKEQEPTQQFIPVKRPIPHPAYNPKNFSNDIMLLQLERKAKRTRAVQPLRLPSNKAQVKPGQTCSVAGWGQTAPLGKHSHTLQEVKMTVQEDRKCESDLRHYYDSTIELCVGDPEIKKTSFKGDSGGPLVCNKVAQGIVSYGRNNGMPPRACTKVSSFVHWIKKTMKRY
Protocol: (§1) Figure 1. Isosteric substitution of carboxylic acid at P1 with sulfonic acid enhances selectivity for GzmB over Casp-8. (A) Chemical structures of tetrapeptide fluorogenic substrates 1-4. (B) Enzyme cleavage assay. 100 μM of each substrate was incubated with either recombinant human active GzmB (10 nM) or Casp-8 (5 nM) and fluorescence was measured at Ex/Em: 380/460 nm for 1 h. The initial velocity (V0) of each substrate was normalized to that of the control substrate Ac-IEPD-ACC (1). […] (C) Kinetic measurement. The Michaelis-Menten plot and kinetic parameters were generated with varying concentrations of each substrate 1 and 2 incubated with recombinant human active GzmB (10 nM) and Casp-8 (5 nM). […] (D) Chemical structures of inhibitors 5-7. (E) GzmB inhibition. Recombinant human active GzmB (2 U/μL) was incubated with varying concentrations of each inhibitor and the residual activity of GzmB was measured by the cleavage of Ac-IEPD-AMC fluorogenic substrate and normalized to DMSO control.
(§2) All kinetic experiments were performed on a spectrofluorometer (Biotek cytation5 or Synergy|Mx microplate reader) and analyzed using Microsoft Excel and GraphPad Prism. […]
(v/v) Tween-20, pH 7.5. Assay buffers were prepared at room temperature while the kinetic experiments were performed at 37 °C. Data are presented as the mean with standard deviation (at least two independent experiments). For kinetic experiments, pro-GzmB (0.22 mg/mL) was activated with mouse cathepsin C (22 µg/mL in 50 mM MES, 50 mM NaCl, pH 5.5) and diluted in assay buffer. Alternatively, active GzmB at 100 U/µL was purchased from Enzo Life Sciences (#BML-SE238-5000) and diluted in assay buffer. Conditions for individual experiments are […]
(§3) Figure 1B-C: 10 nM of active GzmB or 5 nM of Casp-8 were treated with different substrates (compounds 1-4) and recorded fluorescence (Ex/Em: 380/460 nm) for 1 h at 37 °C. To determine Michaelis-Menten constants, cleavage assays with 10 nM of GzmB or 5 nM of Casp-8 were performed with different concentrations of substrates 1 and 2. […]
(§4) Working concentrations were prepared by further diluting in the assay buffer before use. Mouse pro-GzmB (0.474 mg/mL) was also activated with mCatC (52.14 µg/mL in 50 mM MES, 50 mM NaCl, pH 5.5), diluted in assay buffer and stored as 500 nM aliquots at - 80 °C, which were further diluted in assay buffer to make final working concentrations. In-gel fluorescence images were acquired on a Typhoon FLA9500 instrument while western blot and Coomassie staining images were acquired on an AMHERST ImageQuant 800 instrument.

Casp-8 = Casp-8 (Homo sapiens, UniProt Q14790); test: Enzyme cleavage assay / Michaelis-Menten kinetics of fluorogenic substrates with Casp-8; format: biochemical; conditions: 100 μM substrate, 5 nM Casp-8, 1 h, V0 normalized to 1
Protocol: as §1, §2
(§5) (v/v) Tween-20, pH 7.5. Assay buffers were prepared at room temperature while the kinetic experiments were performed at 37 °C. Data are presented as the mean with standard deviation (at least two independent experiments). […]
(§6) (#BML-SE238-5000) and diluted in assay buffer. Conditions for individual experiments are […]
as §3
Working concentrations were prepared by further diluting in the assay buffer before use. […] In-gel fluorescence images were acquired on a Typhoon FLA9500 instrument while western blot and Coomassie staining images were acquired on an AMHERST ImageQuant 800 instrument.

[2] = substrate: CC[C@H](C)[C@H](NC(C)=O)C(=O)N[C@@H](CCC(=O)O)C(=O)N1CCC[C@H]1C(=O)N[C@@H](CS(=O)(=O)O)C(=O)Nc1ccc2c(CC(N)=O)cc(=O)oc2c1; test: as above; format: biochemical, human; conditions: other: 5 nM Casp-8, varying substrate concentrations, 37 °C
Protocol: as §1, §2, §5, §6, §3, §4

[3] = substrate: CC[C@H](C)[C@H](NC(C)=O)C(=O)N[C@@H](CCC(=O)O)C(=O)N1CCC[C@H]1C(=O)N[C@@H](CC(=O)O)C(=O)Nc1ccc2c(CC(N)=O)cc(=O)oc2c1; test: as above; format: biochemical, human; conditions: other: 5 nM Casp-8, varying substrate concentrations, 37 °C
Protocol: as §1, §2, §5, §6, §3, §4

[4] = 100 μM substrate, 1 h, V0 normalized to 1

CC[C@H](C)[C@H](NC(C)=O)C(=O)N[C@@H](CCC(=O)O)C(=O)N1CCC[C@H]1C(=O)N[C@@H](CS(=O)(=O)O)C(=O)Nc1ccc2c(CC(N)=O)cc(=O)oc2c1 [Compound 2, Ac-IEPCya-ACC] (Ac-IEP[Cya]-{ACC})
increase in turnover (kcat) for GzmB compared to Ac-IEPD-ACC (1) [1]: 10 fold | cleavage efficiency by GzmB compared to Ac-IEPD-ACC (1) [1, 4]: 6 fold | cleavage by Casp-8 compared to Ac-IEPD-ACC (1), in words (Casp-8): cleavage by Casp-8 was reduced

CC[C@H](C)[C@H](NC(C)=O)C(=O)N[C@@H](CCS(=O)(=O)O)C(=O)N1CCC[C@H]1C(=O)N[C@@H](CC(=O)O)C(=O)Nc1ccc2c(CC(N)=O)cc(=O)oc2c1 [Compound 3] (Ac-I[Abu(4-SO3H)]PD-{ACC})
cleavage by GzmB compared to Ac-IEPD-ACC (1), in words [1, 4]: reduced cleavage by GzmB | cleavage by Casp-8 compared to Ac-IEPD-ACC (1), in words (Casp-8): increased cleavage by Casp-8

CC[C@H](C)[C@H](NC(C)=O)C(=O)N[C@@H](CCS(=O)(=O)O)C(=O)N1CCC[C@H]1C(=O)N[C@@H](CS(=O)(=O)O)C(=O)Nc1ccc2c(CC(N)=O)cc(=O)oc2c1 [Compound 4] (Ac-I[Abu(4-SO3H)]P[Cya]-{ACC})
cleavage by GzmB compared to Ac-IEPD-ACC (1), in words [1, 4]: routed for cleavage by GzmB | cleavage by Casp-8 compared to Ac-IEPD-ACC (1), in words (Casp-8): decreasing cross-reactivity with Casp-8

B1: Casp-8 (Homo sapiens) (protein)
chain 1: SESQTLDKVYQMKSKPRGYCLIINNHNFAKAREKVPKLHSIRDRNGTHLDAGALTTTFEELHFEIKPHDDCTVEQIYEILKIYQLMDHSNMDCFICCILSHGDKGIIYGTDGQEAPIYELTSQFTGLKCPSLAGKPKVFFIQACQGDNYQKGIPVETD
chain 2: LSSPQTRYIPDEADFLLGMATVNNCVSYRNPAEGTWYIQSLCQSLRERCPRGDDILTILTEVNYEVSNKDDKKNMGKQMPQPTFTLRKKLVFPSD
Km [2]: 506.3 µM | kcat [2]: 0.087 s⁻¹ | kcat/Km [2]: 172 M⁻¹ s⁻¹ | Km [3]: 359.9 µM | kcat [3]: 0.090 s⁻¹ | kcat/Km [3]: 250 M⁻¹ s⁻¹
